Consider one molecule from patent US20230355647A1, “Marker for determining anti-cancer effects of mitochondrial oxidative phosphorylation pathway inhibitor” (NANJING SHIJIANG MEDICINE TECHNOLOGY CO., LTD, priority 2020, published 2023).

Molecules are shown by their SMILES.

The test system of assay [1] is NCI-H82 cell with overexpression of NNMT protein and/or knockdown of DNMT1 expression. Nature of the assay: Sensitivity of NCI-H82 after NNMT overexpression and/or DNMT1 knockdown, intracellular ATP detection. Format: cell-based, human. Particulars: FIG. 21, FIG. 22. The source says: The NCI-H82 cell overexpressing NNMT protein was obtained by inserting the NNMT gene into NCI-H82 cell using a viral vector. The expression of DNMT1 in NCI-H82 cells was knocked down using shRNA transfection. The changes in sensitivity of cells to mitochondrial oxidative phosphorylation pathway inhibitors (Gboxin, Oligomycin A) was investigated using intracellular ATP detection methods after overexpression of NNMT protein and/or knockdown of DNMT1 expression. The experiment result was shown in FIG. 21 and FIG. 22, wherein, “Vector” referred to NCI-H82 cell transfected with empty virus as control group.

The subject of assay [2] is OCI-M1. The assay is described as follows: Cell viability (CellTiter-Glo), OCI-M1. Format: cell-based. Particulars: OCI-M1 cell line, 3-4 days of culture. On the procedure: (§1) Cell viability was detected using the Promega CellTiter-Glo kit, the kit reflected cell viability by directly measuring intracellular ATP content. The inhibitory effect (IC50 value) of Gboxin, a mitochondrial oxidative phosphorylation pathway inhibitor, on different tumor cell lines was tested in the Example. The name, source, and culture condition of each tumor cell line were as follows:
Cell line OCI-M1 (DSMZ, No. ACC-529) was cultured in 20% fetal bovine serum-containing IMDM medium (+P/S).
(§2) The above tumor cells were cultured in the relevant medium (+P/S), and incubated for 3 h, then the gradient diluted Gboxin was added, and IC50 (50% inhibiting concentration) was measured after 3-4 days of culture.

Assay [3] concerns OCI-AML-3. The assay is described as follows: Cell viability (CellTiter-Glo), OCI-AML-3. Format: cell-based. Particulars: Homo sapiens; OCI-AML-3 cell line, 3-4 days of culture. As to the method: as §1
Cell line OCI-AML-3 (DSMZ, No. ACC-582) was cultured in 20% fetal bovine serum-containing RPMI1640 medium (+P/S).
as §2

The test system of assay [4] is Daoy. The assay is described as follows: Cell viability (CellTiter-Glo), Daoy. The settings on record: Homo sapiens; Daoy cell line, 3-4 days of culture. Format: cell-based. On the procedure: as §1
Cell line Daoy (ATCC, No. HTB-186) was cultured in 10% fetal bovine serum-containing EMEM medium (+P/S).
as §2

The test system of assay [5] is NCI-H196. Nature of the assay: Cell viability (CellTiter-Glo), NCI-H196. The settings on record: NCI-H196 cell line, 3-4 days of culture. Format: cell-based. As to the method:
as §1
Cell line NCI-H196 (ATCC, No. CRL-5823) was cultured in 10% fetal bovine serum-containing RPMI1640 medium (+P/S).
as §2

In assay [6] the test system is NCI-H1048. Nature of the assay: Cell viability (CellTiter-Glo), NCI-H1048. The settings on record: Homo sapiens; NCI-H1048 cell line, 3-4 days of culture. Format: cell-based. On the procedure: as §1
Cell line NCI-H1048 (ATCC, No. CRL-5853) was cultured in 5% fetal bovine serum-containing HITES medium (+P/S).
as §2

Assay [7] relates to COLO 320HSR. Nature of the assay: Cell viability (CellTiter-Glo), COLO 320HSR. Format: cell-based. Particulars: Homo sapiens; COLO 320HSR cell line, 3-4 days of culture. As to the method: as §1
Cell line COLO 320HSR (ATCC, No. CCL-220.1) was cultured in 10% fetal bovine serum-containing RPMI1640 medium (+P/S).
as §2

Assay [8] concerns MIA PaCa-2. Nature of the assay: Cell viability (CellTiter-Glo), MIA PaCa-2. Format: cell-based. Particulars: Homo sapiens; MIA PaCa-2 cell line, 3-4 days of culture. On the procedure: as §1
Cell line MIA PaCa-2 (ATCC, No. CRL-1420) was cultured in 10% fetal bovine serum-containing DMEM medium (+P/S).
as §2

The subject of assay [9] is U-251 MG. Nature of the assay: Cell viability (CellTiter-Glo), U-251 MG. Particulars: Homo sapiens; U-251 MG cell line, 3-4 days of culture. Format: cell-based. As to the method: as §1
Cell line U-251 MG (ECACC, No. 9063001) was cultured in EMEM medium containing 2 mM glutamine, 1% NEAA, 1 mM sodium pyruvate (NaP) and 10% fetal bovine serum (+P/S).
as §2

Assay [10] has as its system NCI-H82. The assay is described as follows: Cell viability (CellTiter-Glo), NCI-H82. Format: cell-based. The settings on record: Homo sapiens; NCI-H82 cell line, 3-4 days of culture. On the procedure:
as §1, with “follows: Cell line NCI-H82 (ATCC, No. HTB-175) was cultured in 10% fetal bovine serum-containing RPMI1640 medium (+P/S). […] Cell viability was detected using the Promega CellTiter-Glo kit, the kit reflected cell viability by directly measuring intracellular ATP content.” for “follows:”

For assay [11], the system named is MDA-MB-453. Nature of the assay: Cell viability (CellTiter-Glo), MDA-MB-453. Format: cell-based. Particulars: Homo sapiens; MDA-MB-453 cell line, 3-4 days of culture. As to the method: as §1, with “follows: Cell line MDA-MB-453 (ATCC, No. HTB-131) was cultured in 10% fetal bovine serum-containing Leibovitz's L-15 medium (+P/S). […] Cell viability was detected using the Promega CellTiter-Glo kit, the kit reflected cell viability by directly measuring intracellular ATP content.” for “follows:”

Assay [12] concerns 769-P. Nature of the assay: Cell viability (CellTiter-Glo), 769-P. Format: cell-based. The settings on record: Homo sapiens; 769-P cell line, 3-4 days of culture. As to the method: as §1
Cell line 769-P (ATCC, No. CRL-1933) was cultured in 10% fetal bovine serum-containing RPMI1640 medium (+P/S).
as §2

Assay [13] relates to AM-38. Nature of the assay: Cell viability (CellTiter-Glo), AM-38. Format: cell-based. Particulars: Homo sapiens; AM-38 cell line, 3-4 days of culture. As to the method: as §1
Cell line AM-38 (JCRB, No. IF050492) was cultured in EMEM medium containing 20% heat-inactivated fetal bovine serum (+P/S).
as §2

The subject of assay [14] is SNU-398. The assay is described as follows: Cell viability (CellTiter-Glo), SNU-398. Format: cell-based. Particulars: Homo sapiens; SNU-398 cell line, 3-4 days of culture. As to the method: as §1
Cell line SNU-398 (ATCC, No. CRL-2233) was cultured in 10% fetal bovine serum-containing RPMI1640 medium (+P/S).
as §2

As for `CCc1n(CC(=O)O[C@@H]2C[C@H](C)CC[C@H]2C(C)C)c2ccccc2[n+]1C.[Cl-]` [Gboxin], the “sensitivity of NCI-H82 cell to the inhibitor” value in assay [1] (DNMT1 expression knocked down (sh-DNMT1 #1 or sh-DNMT1 #2) vs Vector) and in assay [1] (NNMT protein overexpressed alone (ov-NNMT) vs Vector) was “decreased” each time. The “sensitivity of NCI-H82 tumor cells to the inhibitor” value in assay [1] (NNMT overexpressed and DNMT1 knocked down simultaneously (ov-NNMT/sh-DNMT1 #1 and #2)) is “decreased more significantly”. Moreover, the IC50 is 21.7 µM in [2]; 1.46 µM in [3]; 9.72 µM in assay [4]; 19.3 µM in assay [5]; 4.34 µM in assay [6]; over 30 µM in assay [7]. The 50% inhibitory concentration (IC50) is 2.57 µM in assay [8]; 16.7 µM in assay [9]; 0.398 µM in assay [10]; 0.942 µM in assay [11]; over 30 µM in assay [12]; 10.3 µM in assay [13]. Half-maximal inhibition in [14] (IC50) was put at 4.17 µM.
